Data taken from US12507703B2, “Methods, devices and compositions for preserving human milk” (The Trustees of Princeton University, priority 2023, dated 2025).
Values joined by “and” are separate entries in the source; they are usually repeats but may differ in a detail not shown here. Equal values may be shown once. Where a SMILES comes first, the peptide text is derived from it.

The molecules below were run on lipase (assay: Lipase/lipolysis assay (EnzChek Lipase Substrate, quenched BODIPY-fatty acid conjugate) on stored human milk; further: test concentration or dose not given here).

Molecule	Lipase (RFU)
CC1(C)CCC[C@]2(C)[C@H]3CC(=O)O[C@]3(C)CC[C@@H]12 [Sclareolide]	845.6458 RFU
CC(C)=CCC[C@](C)(O[C@@H]1O[C@H](CO)[C@@H](O)[C@H](O)[C@H]1O)[C@H]1CC[C@]2(C)[C@@H]1[C@H](O)C[C@@H]1[C@@]3(C)CC[C@H](O)C(C)(C)[C@@H]3[C@@H](O[C@@H]3O[C@H](CO)[C@@H](O)[C@H](O)[C@H]3O)C[C@]12C [Ginsenoside Rg1]	1026.433 RFU
C=C(CCC=C(C)C)[C@H]1CC[C@]2(C)[C@@H]1[C@H](O)C[C@@H]1[C@@]3(C)CC[C@H](O)C(C)(C)[C@@H]3[C@@H](O[C@@H]3O[C@H](CO)[C@@H](O)[C@H](O)[C@H]3O[C@@H]3O[C@@H](C)[C@H](O)[C@@H](O)[C@H]3O)C[C@]12C [Ginsenoside Rg6]	737.5989 RFU
NCCS(=O)O [Hypotaurine]	1147.047 RFU and 798.4494 RFU
COc1ccc(C(=O)/C=C/c2ccc(O)cc2)c(O)c1CC=C(C)C [Compound 4-Hydroxyderricin]	842.4877 RFU
OC1OC[C@@H](O[C@@H]2OC[C@@H](O)[C@H](O)[C@H]2O)[C@H](O)[C@H]1O (stereo partly drawn) [Xylobiose]	862.1511 RFU
CCO.C[C@H]1c2cccc(O)c2C(O)=C2C(=O)[C@]3(O)C(O)=C(C(N)=O)C(=O)[C@@H](N(C)C)[C@@H]3[C@@H](O)[C@@H]21.C[C@H]1c2cccc(O)c2C(O)=C2C(=O)[C@]3(O)C(O)=C(C(N)=O)C(=O)[C@@H](N(C)C)[C@@H]3[C@@H](O)[C@@H]21.Cl.Cl.O [Doxycycline (hyclate)]	757.6717 RFU
CC(C)=C1CC[C@@H](C)CC1=O [Pulegone]	791.7693 RFU and 1146.187 RFU
COc1ccc(C=O)cc1OC [Veratraldehyde]	898.3756 RFU and 979.6116 RFU
O=P([O-])([O-])OP(=O)(O)O.[Na+].[Na+] [Disodium pyrophosphate]	1213.966 RFU
NCC(=O)N1CCC[C@H]1C(=O)O [H-Gly-Pro-OH] (H-Gly-Pro-OH)	952.5324 RFU
O=C(O)c1ccccc1 [Benzoic Acid]	1003.567 RFU and 1115.708 RFU and 946.6732 RFU
OC[C@@H](O)[C@@H](O[C@H]1O[C@H](CO)[C@@H](O)[C@H](O)[C@H]1O)[C@H](O)[C@@H](O)CO [Maltitol]	943.5543 RFU
O=C1c2ccccc2C(=O)c2cc(CO)ccc21 [2-(Hydroxymethyl)anthraquinone]	723.6408 RFU
Cn1cncc1C[C@H](NC(=O)CCN)C(=O)O [Anserine]	1023.923 RFU
COc1cc(/C=C/C(=O)OCC[N+](C)(C)C)cc(OC)c1O [Sinapine]	1084.597 RFU
O=C(O)C(F)(F)F.O=C1N[C@@H](Cc2cnc[nH]2)C(=O)N2CCC[C@@H]12 [Cyclo(his-pro) (TFA)]	956.1787 RFU
O=C(O)CC(O)C(=O)O (racemic) [D,L-Malic Acid]	781.9881 RFU
Nc1nc2c(ncn2[C@@H]2O[C@@H]3COP(=O)(O)O[C@H]3[C@H]2O)c(=O)[nH]1 [Guanosine-3′,5′-cyclic monophosphate]	813.7484 RFU and 1141.322 RFU
CCOP(=O)(O)OCC [Diethyl phosphate]	1033.984 RFU
CN(C)C(N)=NCCC[C@H](N)C(=O)O [Asymmetric dimethylarginine]	806.9828 RFU
Tara gum	841.631 RFU
C[C@H](CCC(=O)NCCS(=O)(=O)[O-])[C@H]1CC[C@H]2[C@@H]3[C@H](O)C[C@@H]4C[C@H](O)CC[C@]4(C)[C@H]3CC[C@]12C.[Na+] [Taurochenodeoxycholic acid (sodium)]	1047.423 RFU
COc1cc(-c2cc(=O)c3c(O)c(OC)c(O)cc3o2)ccc1O [Jaceosidin]	614.7008 RFU
